Assay results from patent publication US20240360178A1, “MACROCYCLIC IMMUNOMODULATORS” (Bristol-Myers Squibb Company, priority 2021, published 2024).
pIC50: −log10 of the molar value. Positions of bridges follow the written chain, without caps; N, C: chain ends. Non-standard residues stand in square brackets, D forms with d. Residues, ends and D or L forms follow the SMILES beside them. ξ: configuration not given here. *: point of attachment. Phe(4-COOH) = N[C@@H](Cc1ccc(C(=O)O)cc1)C(=O)O; Bip = N[C@@H](Cc1ccc(-c2ccccc2)cc1)C(=O)O; Phe(3-Me) = Cc1cccc(C[C@H](N)C(=O)O)c1; NMeY = CN[C@@H](Cc1ccc(O)cc1)C(=O)O; NMeF = CN[C@@H](Cc1ccccc1)C(=O)O; 4Pal = N[C@@H](Cc1ccncc1)C(=O)O; Cha = N[C@@H](CC1CCCCC1)C(=O)O; Carboxymethyl = O=C(O)C*; Orn = NCCC[C@H](N)C(=O)O; Dab = NCC[C@H](N)C(=O)O; Dap = NC[C@H](N)C(=O)O; ξV = CC(C)C(N)C(=O)O

molecular target: T1, human PD-1 (Jurkat-PD-1 cells) / PE-labeled human PD-L1-Ig (Homo sapiens, UniProt Q15116); experiment: Jurkat-PD-1 Cell Binding High-Content Screening Assay (CBA); Jurkat hPD1-PDL1 assay; settings: Jurkat cell line over-expressing human PD-1; PE-labeled PD-L1-Ig 20 nM final; compound incubated 2 hours at 37° C.; read-out: Jurkat HPD1-PDL1 IC50
T1 construct: expressed in transfected cells; host or cells: Jurkat cell line over-expressing human PD-1
Method in brief: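 Read-out is high-content imaging of PE fluorescence on PD-1-over-expressing Jurkat cells. Cells are first exposed to compound for 2 hours at 37° C in serum-containing DMEM, after which PE-labeled PD-L1-Ig is added at 20 nM final.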

T1 sequence (Q15116 25-288): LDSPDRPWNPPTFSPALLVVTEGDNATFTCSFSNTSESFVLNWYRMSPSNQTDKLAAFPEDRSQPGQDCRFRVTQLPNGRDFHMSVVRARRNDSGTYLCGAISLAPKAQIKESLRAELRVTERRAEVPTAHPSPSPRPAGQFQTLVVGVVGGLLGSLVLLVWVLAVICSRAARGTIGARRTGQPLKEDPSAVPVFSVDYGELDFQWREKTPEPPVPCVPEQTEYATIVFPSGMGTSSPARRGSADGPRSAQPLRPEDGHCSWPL

| Structure (SMILES) | pIC50 |
| --- | --- |
| Cc1cccc(C[C@@H]2NC(=O)[C@H](CC(=O)O)NC(=O)[C@H](Cc3ccc(C(=O)O)cc3)NC(=O)[C@H](Cc3ccc(OCC(=O)O)cc3)NC(=O)CSC[C@@H](C(=O)N[C@@H](C)C(N)=O)NC(=O)[C@H]([C@@H](C)O)NC(=O)[C@H](C(C)C)NC(=O)[C@H](CC3CCCCC3)NC(=O)[C@H](CCN)NC(=O)[C@H](Cc3ccccc3)N(C)C(=O)[C@H](CCCN)NC(=O)[C@H](CCC(=O)O)NC(=O)[C@H](Cc3ccc(-c4ccccc4)cc3)NC(=O)C(C(C)C)NC2=O)c1 (some centres unmarked) [Example 1449] ({CH2CO}-Y(Carboxymethyl)[Phe(4-COOH)]D[Phe(3-Me)][ξV][Bip]E[Orn][NMeF][Dab][Cha]VTCA-NH2; thioether N-14) | 7.52 |
| CC(C)C1NC(=O)[C@H](Cc2c[nH]c3ccccc23)NC(=O)[C@H](CC(=O)O)NC(=O)[C@H](Cc2ccc(C(=O)O)cc2)NC(=O)[C@H](Cc2ccncc2)NC(=O)CSC[C@@H](C(=O)N[C@@H](C)C(N)=O)NC(=O)[C@H]([C@@H](C)O)NC(=O)[C@H](C(C)C)NC(=O)[C@H](CC2CCCCC2)NC(=O)[C@H](CCN)NC(=O)[C@H](Cc2ccc(O)cc2)N(C)C(=O)[C@H](CCCN)NC(=O)[C@H](CCC(=O)O)NC(=O)[C@H](Cc2ccc(-c3ccccc3)cc2)NC1=O (some centres unmarked) [Example 1450] ({CH2CO}-[4Pal][Phe(4-COOH)]DW[ξV][Bip]E[Orn][NMeY][Dab][Cha]VTCA-NH2; thioether N-14) | 6.68 |
| CC(C)C1NC(=O)[C@H](Cc2c[nH]c3ccccc23)NC(=O)[C@H](CC(=O)O)NC(=O)[C@H](Cc2ccncc2)NC(=O)[C@H](CN)NC(=O)CSC[C@@H](C(=O)N[C@@H](C)C(N)=O)NC(=O)[C@H]([C@@H](C)O)NC(=O)[C@H](C(C)C)NC(=O)[C@H](CC2CCCCC2)NC(=O)[C@H](CCN)NC(=O)[C@H](Cc2ccc(O)cc2)N(C)C(=O)[C@H](CCCN)NC(=O)[C@H](CCC(=O)O)NC(=O)[C@H](Cc2ccc(-c3ccccc3)cc2)NC1=O (some centres unmarked) [Example 1451] ({CH2CO}-[Dap][4Pal]DW[ξV][Bip]E[Orn][NMeY][Dab][Cha]VTCA-NH2; thioether N-14) | 6.28 |

Other lines, results leading:

| pIC50 | Structure (SMILES) |
| --- | --- |
| 6.85 | CC(C)C1NC(=O)[C@H](Cc2c[nH]c3ccccc23)NC(=O)[C@H](CC(=O)O)NC(=O)[C@H](Cc2ccncc2)NC(=O)[C@H](Cc2ccc(OCC(=O)O)cc2)NC(=O)CSC[C@@H](C(=O)N[C@@H](C)C(N)=O)NC(=O)[C@H]([C@@H](C)O)NC(=O)[C@H](C(C)C)NC(=O)[C@H](CC2CCCCC2)NC(=O)[C@H](CCN)NC(=O)[C@H](Cc2ccc(O)cc2)N(C)C(=O)[C@H](CCCN)NC(=O)[C@H](CCC(=O)O)NC(=O)[C@H](Cc2ccc(-c3ccccc3)cc2)NC1=O (some centres unmarked) [Example 1452] ({CH2CO}-Y(Carboxymethyl)[4Pal]DW[ξV][Bip]E[Orn][NMeY][Dab][Cha]VTCA-NH2; thioether N-14) |
| 6.49 | CC(C)C1NC(=O)[C@H](Cc2c[nH]c3ccccc23)NC(=O)[C@H](CC(=O)O)NC(=O)[C@H](Cc2ccc(OCC(=O)O)cc2)NC(=O)[C@H](CN)NC(=O)CSC[C@@H](C(=O)N[C@@H](C)C(N)=O)NC(=O)[C@H]([C@@H](C)O)NC(=O)[C@H](C(C)C)NC(=O)[C@H](CC2CCCCC2)NC(=O)[C@H](CCN)NC(=O)[C@H](Cc2ccc(O)cc2)N(C)C(=O)[C@H](CCCN)NC(=O)[C@H](CCC(=O)O)NC(=O)[C@H](Cc2ccc(-c3ccccc3)cc2)NC1=O (some centres unmarked) [Example 1453] ({CH2CO}-[Dap]Y(Carboxymethyl)DW[ξV][Bip]E[Orn][NMeY][Dab][Cha]VTCA-NH2; thioether N-14) |
